Data reported in the supplement of paper PMC11616607.

Tests used:
Assay in all cases: drug sensitivity score (DSS) from 5-point dose-response viability curve (DSS (area-under-curve based score)); higher = more sensitive (stronger growth inhibition or killing); extreme values may be limits of the assay
Conditions in all cases: exposure time: 72 h; concentration range: 5 concentrations over 10,000-fold range
JHOS2 = tested on: JHOS2
Summary of the method: (§1)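 For the drug sensitivity score, obtained per cell line and drug in Breeze software, larger values mean greater sensitivity. No response corresponds to a score of zero. Ovarian cancer and normal ovarian cells were seeded at 1,500 per well into 384-well plates already holding acoustically dispensed drugs (Echo 550, DMSO or water, five concentrations over a 10,000-fold range) and incubated 3 days at 37°C, 5% CO2. CellTiter-Glo luminescence on a PHERAstar FS gave the viability readout.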

COV318 = tested on: COV318
Summary of the method: as §1

OVCAR5 = tested on: OVCAR5
Summary of the method: as §1

Ovsaho = tested on: Ovsaho
Summary of the method: as §1

OVCAR8 = tested on: OVCAR8
Summary of the method: as §1

COV362 = tested on: COV362
Summary of the method: as §1

HOSE1C = tested on: HOSE1C
Summary of the method: as §1

CAOV3 = tested on: CAOV3
Summary of the method: as §1

OV90 = tested on: OV90
Summary of the method: as §1

OVCAR4 = tested on: OVCAR4
Summary of the method: as §1

HOSE2C = tested on: HOSE2C
Summary of the method: as §1

Kuramochi = tested on: Kuramochi
Summary of the method: as §1

SMILES | drug sensitivity score (JHOS2) | drug sensitivity score (COV318) | drug sensitivity score (OVCAR5) | drug sensitivity score (Ovsaho) | drug sensitivity score (OVCAR8) | drug sensitivity score (COV362) | drug sensitivity score (HOSE1C) | drug sensitivity score (CAOV3) | drug sensitivity score (OV90) | drug sensitivity score (OVCAR4) | drug sensitivity score (HOSE2C) | drug sensitivity score (Kuramochi)
Nc1cc(COc2c(Cl)cc(C[C@H](N)C(=O)O)cc2Cl)c2oc(-c3ccccc3)nc2c1 [JPH203] | 0 | 0 | 7.5 | 0 | 0 | 0 | 0 | 0 | 0 | 0.2 | 0 | 0
CC[C@H](NC(=O)[C@H](C)NC)C(=O)N1C[C@@H](O)C[C@H]1Cc1c(-c2[nH]c3cc(F)ccc3c2C[C@@H]2C[C@H](O)CN2C(=O)[C@H](CC)NC(=O)[C@H](C)NC)[nH]c2cc(F)ccc12 [Birinapant] | 5.6 | 0.2 | 0 | 11.6 | 1.9 | 0 | 0 | 9.2 | 0.8 | 12.6 | 0 | 0.4
CNC(=O)c1ccccc1Sc1ccc2c(/C=C/c3ccccn3)n[nH]c2c1 [Axitinib] | 0 | 0 | 0.8 | 0.8 | 2 | 0 | 1.9 | 5 | 0.1 | 0.2 | 6.2 | 0.4
CC(C)C[C@H](NC(=O)[C@H](CCc1ccccc1)NC(=O)CN1CCOCC1)C(=O)N[C@@H](Cc1ccccc1)C(=O)N[C@@H](CC(C)C)C(=O)[C@@]1(C)CO1 [Carfilzomib] | 25.5 | 26.5 | 24 | 28.4 | 21.5 | 20.2 | 27.4 | 24.6 | 27.6 | 23.4 | 28.4 | 12.4
CC[C@H](C)C(=O)O[C@H]1C[C@H](O)C=C2C=C[C@H](C)[C@H](CC[C@@H](O)C[C@@H](O)CC(=O)O)[C@H]21 [Pravastatin] | 0 | 0 | 0 | 0 | 0 | 0 | 0 | 0 | 0 | 0 | 0 | 0
O=C(/C=C\n1cnc(-c2cc(C(F)(F)F)cc(C(F)(F)F)c2)n1)NNc1cnccn1 [Selinexor] | 13.9 | 8.2 | 15.3 | 16.5 | 17.4 | 7.9 | 29 | 18.7 | 8.2 | 10.7 | 9.3 | 8.1
Cc1ccc(NC(=O)c2ccc(CN3CCN(C)CC3)cc2)cc1Nc1nc(-c2cccnc2)cs1 [Masitinib] | 1.7 | 1.7 | 4.4 | 0.8 | 4.1 | 1.4 | 1.8 | 0.2 | 5.2 | 2.1 | 1.3 | 3.4
Cn1cc(CNCC2CCN(c3ncc(C(=O)NO)cn3)CC2)c2ccccc21 [Quisinostat] | 8.1 | 4.7 | 19.2 | 9 | 18.6 | 4.5 | 22.9 | 11.5 | 14.6 | 8 | 19 | 9.2
Cc1cc(OCc2nnc(SC3CCCC3)n2-c2cccnc2)ccc1-c1ccc(S(C)(=O)=O)cc1 [NMS-873] | 6.7 | 8.7 | 8.9 | 6.9 | 19.9 | 4.4 | 9.3 | 8.6 | 12.4 | 7.9 | 8.1 | 6.8
Cn1nccc1Nc1nccc(-c2ccn([C@H](CO)c3ccc(Cl)c(F)c3)c(=O)c2)n1 [Ravoxertinib] | 3.7 | 0 | 8.8 | 4.7 | 6.9 | 0.2 | 0 | 6 | 13.6 | 0.8 | 0 | 4.8
Cc1[nH]c2ccccc2c1CCNCc1ccc(/C=C/C(=O)NO)cc1 [Panobinostat] | 13.1 | 10.6 | 23.3 | 10.8 | 21.4 | 5.8 | 24.1 | 14.5 | 18.2 | 13.5 | 21.1 | 15.3
COc1ncc(-c2ccc3nccc(-c4ccnnc4)c3c2)cc1NS(=O)(=O)c1ccc(F)cc1F [Omipalisib] | 10.1 | 10.7 | 18.9 | 10.4 | 13.3 | 6.7 | 16.6 | 16.9 | 8.6 | 12.7 | 18.1 | 16.2
O=C(c1cc(Cc2n[nH]c(=O)c3ccccc23)ccc1F)N1CCN(C(=O)C2CC2)CC1 [Olaparib] | 4.6 | 2.9 | 2 | 2.1 | 4.9 | 0.3 | 0.8 | 4.7 | 5.4 | 1.9 | 2.5 | 3.4
COc1nc(N)nc2c1ncn2[C@@H]1O[C@H](CO)[C@@H](O)[C@@H]1O [Nelarabine] | 0 | 0 | 0 | 0 | 0 | 0 | 0 | 0 | 1.7 | 0 | 0 | 0
CC(C)(C#N)c1cc(Cn2cncn2)cc(C(C)(C)C#N)c1 [Anastrozole] | 0 | 0 | 0 | 0 | 0 | 0 | 0 | 0 | 0 | 0 | 0 | 0
CCCCCCCCCCCCCCCCCCOP(=O)([O-])OC1CC[N+](C)(C)CC1 [Perifosine] | 0 | 0 | 0 | 0 | 0 | 0 | 0 | 0 | 0 | 0 | 0 | 0
CCCCc1nc2cc(/C=C/C(=O)NO)ccc2n1CCN(CC)CC [Pracinostat] | 13 | 10 | 20.9 | 10.5 | 19.5 | 5.1 | 22.2 | 13.2 | 14.6 | 10.4 | 18.5 | 13.5
CCS(=O)(=O)N1CCN(c2ccc(Nc3ncc(C(N)=O)c(NC4CC4)n3)cc2)CC1 [Cerdulatinib] | 3.5 | 0 | 0 | 0 | 0 | 2.7 | 0 | 0.2 | 0.6 | 0.3 | 0.8 | 0
COc1cc(N2CCC(N3CCN(C)CC3)CC2)ccc1Nc1ncc(Cl)c(Nc2ccccc2P(C)(C)=O)n1 [Brigatinib] | 2.1 | 3.5 | 3.7 | 4.3 | 0 | 1.6 | 0.3 | 3.3 | 4 | 1.7 | 2.9 | 3.5
COc1cccc2c1C(=O)c1c(O)c3c(c(O)c1C2=O)C[C@@](O)(/C(CO)=N/NC(=O)CCCCCN1C(=O)C=CC1=O)C[C@@H]3O[C@H]1C[C@H](N)[C@H](O)[C@H](C)O1 [Aldoxorubicin] | 7.3 | 3.8 | 6.5 | 8.3 | 10 | 2.2 | 6.8 | 9.2 | 8.3 | 3.2 | 7.4 | 5.8
CN1CCN(c2cc(C(=O)Nc3ccc4c(c3)-c3c(c(C(N)=O)nn3-c3ccc(F)cc3)CC4)c(Cl)cn2)CC1 [PHA 408] | 6.1 | 0.7 | 0.5 | 6.2 | 2.4 | 0.6 | 6.5 | 6 | 0.1 | 4.3 | 4.8 | 1.8
CC(C)Nc1cc(-c2c[nH]c(C(=O)N[C@H](CO)c3cccc(Cl)c3)c2)c(Cl)cn1 [Ulixertinib] | 3.8 | 0.9 | 7.8 | 11.5 | 3.6 | 1.9 | 0 | 8 | 14 | 1.1 | 2.2 | 7.7
N#CC[C@H](C1CCCC1)n1cc(-c2ncnc3[nH]ccc23)cn1 [Ruxolitinib] | 1 | 0 | 0 | 0 | 0.1 | 0 | 0 | 0 | 0.1 | 0 | 0 | 0
CCN1CCN(c2ccc(Nc3cc(N(C)C(=O)Nc4c(Cl)c(OC)cc(OC)c4Cl)ncn3)cc2)CC1 [Infigratinib] | 0 | 0 | 0 | 0 | 0 | 0 | 0 | 0 | 0 | 0 | 0 | 0
FC(F)(F)c1ccc(/C=C/c2nc(COc3ccc(CCCCn4ccnn4)cc3)co2)cc1 [Mubritinib] | 0.3 | 0.8 | 0.9 | 0.5 | 16.7 | 0 | 0 | 5.4 | 5.9 | 2.2 | 0 | 0.6
CN(C)C(=O)c1cc2cnc(Nc3ccc(N4CCNCC4)cn3)nc2n1C1CCCC1 [Ribociclib] | 2.9 | 0.2 | 2.3 | 0 | 0 | 0 | 0 | 0 | 0.6 | 0.6 | 0 | 0
C=CC(=O)N1CCC(Oc2cc3c(Nc4ccc(Cl)c(Cl)c4F)ncnc3cc2OC)CC1 [Poziotinib] | 0.4 | 0 | 3.3 | 4.5 | 0 | 0 | 0.4 | 13.1 | 0 | 1.3 | 0 | 1.9
CC#CC(=O)N1CC[C@@H](n2c(=O)n(-c3ccc(Oc4ccccc4)cc3)c3c(N)ncnc32)C1 [Tirabrutinib] | 0 | 0 | 0.8 | 0.3 | 0 | 0 | 0 | 1.6 | 0 | 0 | 0 | 1.3
CNC(=O)c1ccc(N2C(=S)N(c3cnc(C#N)c(C(F)(F)F)c3)C(=O)C23CCC3)cc1F [Apalutamide] | 0 | 0 | 0 | 0 | 0 | 0 | 0 | 0 | 0 | 0 | 0 | 0
O=C(CCCCCCC(=O)Nc1ccccc1)NO [Vorinostat] | 5.3 | 4.3 | 10.8 | 2.7 | 9.7 | 3.2 | 15.9 | 8.6 | 8 | 4.7 | 10.7 | 4.7
